Patent US12630563B2, “Macrocyclic RIP2-kinase inhibitors” (Oncodesign S.A., priority 2020, dated 2026)

target: T1, recombinant hRIPK2 protein (kinase domain aa 1-299-His-tagged) (Homo sapiens, UniProt O43353); test: RIPK2 AlphaLISA assay (displacement of bead-bound CZC-8004 from hRIPK2); format: binding; conditions: recombinant hRIPK2 kinase domain 10 nM, 2 h at 23° C.
T1 construct: kinase domain aa 1-299-His-tagged; purchased Life Technologies PR7829A
Description: RIPK2 AlphaLISA® Assay (Amplified Luminescent Proximity Homogeneous Assay)
A non-specific kinase inhibitor (CZC-8004 Cayman #916603-07-1) bound to an acceptor bead (#6772001 PerkinElmer) was mixed to the recombinant hRIPK2 protein (kinase domain aa 1-299-His-tagged—Life Technologies PR7829A) and a Ni2+-tagged donor beads (#AS101D PerkinElmer). In the presence of an inhibitor, the compound beads displacement from hRIPK2 was followed by signal loss. In a 384-well ProxiPlate@ (Perkin Elmer, 6008280) add:
2 μL RIPK2 inhibitor (in DMSO 0.8%).
2 μL human recombinant RIPK2 (10 nM diluted in AlphaLISA buffer 1×).
4 μL Mix of […] 1/1000 in AlphaLISA buffer 1×.
Homogenize using a microtiter plate shaker and incubate for 2 h at 23° C.
Read using EnVision®-Alpha Reader (PerkinElmer) according to manufacturer specifications.

T1 sequence (O43353 1-299): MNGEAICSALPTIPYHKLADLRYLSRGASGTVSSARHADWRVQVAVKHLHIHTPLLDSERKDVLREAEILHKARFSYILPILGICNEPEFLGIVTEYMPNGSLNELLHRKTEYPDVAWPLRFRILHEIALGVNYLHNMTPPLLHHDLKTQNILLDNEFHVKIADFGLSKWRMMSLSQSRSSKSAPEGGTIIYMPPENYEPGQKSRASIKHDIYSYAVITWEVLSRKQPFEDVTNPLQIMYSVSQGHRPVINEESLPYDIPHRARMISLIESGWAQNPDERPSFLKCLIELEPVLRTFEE

Row | SMILES | IC50
1 | COCc1cn2ncc3c2nc1OC[C@@H]1C[C@@H](OC)C(=O)N1CCNc1cc(F)cc-3c1 [Example 33, (12R,14S)-4-fluoro-12-methoxy-18-(methoxymethyl)-16-oxa-7,10,20,21,24-pentaazapentacyclo[15.5.2.1^2,6.0^10,^14.0^20,^23]pentacosa-1(23),2(25),3,5,17(24),18,21-heptaen-11-one] | < 10 nM
2 | CO[C@@H]1C[C@H]2COc3nc4c(cnn4cc3C)-c3cc(cc(OCc4cccnc4)c3)NCCN2C1=O [Example 49, (12R,14S)-12-methoxy-18-methyl-4-(pyridin-3-ylmethoxy)-16-oxa-7,10,20,21,24-pentaazapentacyclo[15.5.2.1^2,6.0^10,^14.0^20,^23]pentacosa-1(23),2,4,6(25),17(24),18,21-heptaen-11-one] | 10 to 100 nM
3 | COc1cc2cc(c1)-c1cnn3ccc(nc13)OC[C@@H]1C[C@@H](OC)C(=O)N1CC(C)N2 (stereo partly drawn) [Example 89, (12R,14S)-4,12-dimethoxy-8-methyl-16-oxa-7,10,20,21,24-pentaazapentacyclo[15.5.2.1^2,6.0^1°,^14.0^2°,^23]pentacosa-1(23),2,4,6(25),17(24),18,21-heptaen-11-one] | < 10 nM
4 | COCC1C[C@H]2COc3ccn4ncc(c4n3)-c3cc(F)cc(c3)NCCN2C1=O (single isomer, unassigned) [Example 31] | < 10 nM
5 | CCOc1cc2cc(c1)-c1cnn3ccc(nc13)OC[C@@H]1C[C@@H](OCCOC)C(=O)N1CCN2 (racemic) [Example 112, (12R,14S)-4-ethoxy-12-(2-methoxyethoxy)-16-oxa-7,10,20,21,24-pentaazapentacyclo[15.5.2.1^2,6.0^10,^14.0^20,^23]pentacosa-1(23),2(25),3,5,17(24),18,21-heptaen-11-one] | < 10 nM
6 | CCOC(=O)N1CCN2C(=O)[C@H](OC)C[C@H]2COc2ccn3ncc(c3n2)-c2cc(F)cc1c2 [Example 73, Ethyl (12R,14S)-4-fluoro-12-methoxy-11-oxo-16-oxa-7,10,20,21,24-pentaazapentacyclo[15.5.2.1^2,6.0^1°,^14.0^2°,^23]pentacosa-1(23),2,4,6(25),17(24),18,21-heptaene-7-carboxylate] | 10 to 100 nM
7 | C#Cc1cc2cc(c1)-c1cnn3cc(OC)c(nc13)OC[C@@H]1C[C@@H](OCCOC)C(=O)N1CCN2 [Example 146, (12R,14S)-4-ethynyl-18-methoxy-12-(2-methoxyethoxy)-16-oxa-7,10,20,21,24-pentaazapentacyclo[15.5.2.1^2,6.0^1°,^14.0^2°,^23]pentacosa-1(23),2,4,6(25),17(24),18,21-heptaen-11-one] | < 10 nM
8 | CCO[C@@H]1C[C@H]2COc3nc4c(cnn4cc3OC)-c3cc(cc(OC)c3)NCCN2C1=O [Example 132, (12R,14S)-12-ethoxy-4,18-dimethoxy-16-oxa-7,10,20,21,24-pentaazapentacyclo[15.5.2. 1^2,6.0^10,^14.0^20,^23]pentacosa-1(23),2,4,6(25),17(24),18,21-heptaen-11-one] | < 10 nM
9 | CO[C@@H]1C[C@H]2COc3ccn4ncc(c4n3)-c3cc(Cl)cc(c3)NCCN2C1=O [Example 4, (12R,14S)-4-chloro-12-methoxy-16-oxa-7,10,20,21,24-pentaazapentacyclo[15.5.2.1^2,6.0^10,^14.0^20,^23]pentacosa-1(23),2(25),3,5,17(24),18,21-heptaen-11-one] | < 10 nM
10 | COCc1cc2cc(c1)-c1cnn3cc(C)c(nc13)OC[C@@H]1CC(OC)C(=O)N1CCN2 (single isomer, unassigned) [Example 65, (12R or S,14S)-12-methoxy-4-(methoxymethyl)-18-methyl-16-oxa-7,10,20,21,24-pentaazapenta cyclo[15.5.2.1^2,6.0^10,14.0^20,23]pentacosa-1(23),2,4,6(25),17(24), 18,21-heptaen-11-one] | < 10 nM
11 | COCCO[C@@H]1C[C@H]2COc3nc4c(cnn4cc3OC)-c3cc(cc(OC)c3)NCCN2C1=O (racemic) [Example 117, (12R,14S)-4,18-dimethoxy-12-(2-methoxyethoxy)-16-oxa-7,10,20,21,24-pentaazapentacyclo[15.5.2.1^2,6.0^10,^14.0^20,^23]pentacosa-1(23),2,4,6(25),17(24),18,21-heptaen-11-one] | < 10 nM
12 | COCCO[C@@H]1C[C@H]2COc3nc4c(cnn4cc3C)-c3cc(cc(OC)c3)NCCN2C1=O [Example 115, (12R, 14S)-4-methoxy-12-(2-16-oxa-7,10,20,21,24-pentaazapentacyclo[15.5.2. 1^2,6.0^10,^14.0^20,^23]pentacosa-1(23),2,4,6(25),17(24),18, 21-heptaen-11-one] | < 10 nM
13 | [2H]C([2H])([2H])Oc1cc2cc(c1)-c1cnn3ccc(nc13)OC[C@@H]1C[C@@H](OC([2H])([2H])[2H])C(=O)N1CCN2 [Example 53, (12R,14S)-4,12-bis(^2H3)methoxy-16-oxa-7,10,20,21,24-pentaazapentacyclo[[15.5.2.1^2,6.0^10,^14.0^20,^23]pentacosa-1(23),2,4,6(25),17(24),18,21-heptaen-11-one] | < 10 nM
14 | [2H]C([2H])([2H])O[C@@H]1C[C@H]2COc3ccn4ncc(c4n3)-c3cc(cc(OC)c3)NCCN2C1=O [Example 37, (12R,14S)-12-(2H3)methoxy-4-methoxy-16-oxa-7,10,20,21,24-pentaazapentacyclo[15.5.2.1^2,6.0^10,^14.0^20,^23]pentacosa-1(23),2,4,6(25),17(24),18,21-heptaen-11-one] | < 10 nM
15 | COCCO[C@@H]1C[C@H]2COc3nc4c(cnn4cc3OCC3CC3)-c3cc(cc(OC)c3)NCCN2C1=O [Example 123, (12R,14S)-18-(cyclopropylmethoxy)-4-methoxy-12-(2-methoxyethoxy)-16-oxa-7,10,20,21,24-pentaazapentacyclo[15.5.2. 1^2,6.0^10,^14.0^20,^23]pentacosa-1(23),2(25),3,5,17(24),18,21-heptaen-11-one] | < 10 nM
16 | CCO[C@@H]1C[C@H]2COc3ccn4ncc(c4n3)-c3cc(cc(C(=O)N(C)OC)c3)NCCN2C1=O [Example 57, (12R,14S)-12-ethoxy-N-methoxy-N-methyl-11-oxo-16-oxa-7,10,20,21,24-pentaazapentacyclo[15.5.2.1^2,6.0^10,^14.0^20,^23]pentacosa-1(23),2(25),3,5,17(24),18,21-heptaene-4-carboxamide] | < 10 nM
17 | CCO[C@@H]1C[C@H]2COc3ccn4ncc(c4n3)-c3cc(C#N)cc(c3)NCCN2C1=O [Example 23, (12R,14S)-12-ethoxy-11-oxo-16-oxa-7,10,20,21,24-pentaazapentacyclo[15.5.2.1^2,6.0^10,^14.0^20,^23]pentacosa-1(23),2,4,6(25),17(24),18,21-heptaene-4-carbonitrile] | < 10 nM
18 | O=C1[C@H](O)C[C@H]2COc3ccn4ncc(c4n3)-c3cc(F)cc(c3)NCCN12 [Example 104, (12R,14S)-4-fluoro-12-hydroxy-16-oxa-7,10,20,21,24-pentaazapentacyclo[15.5.2. 1^2,6.0^10,^14.0^20,^23]pentacosa-1(23),2(25),3,5,17(24),18,21-heptaen-11-one] | < 10 nM
19 | COCCO[C@@H]1C[C@H]2COc3ccn4ncc(c4n3)-c3cc(cc(C(C)=O)c3)NCCN2C1=O [Example 98, (12R,14S)-4-acetyl-12-(2-methoxyethoxy)-16-oxa-7,10,20,21,24-pentaazapentacyclo[15.5.2.1^2,6.0^10,^14.0^20,^23]pentacosa-1(23),2,4,6(25),17(24),18,21-heptaen-11-one] | < 10 nM
